From publication PMC12410356 (International Journal for Parasitology: Drugs and Drug …, 2025)
Like-named read-outs stand apart in the source and are kept apart here.

How the values were obtained:
[1] = system: Reuber rat hepatoma (RH) cells; experiment: Mammalian cell toxicity, resazurin assay; assay type: cell-based; conditions: for IC50: 5 days incubation, mean ± SD
Procedure: Mammalian cell toxicity on RH cells was measured as described in [Rufener et al. (2018)] with few alterations. Briefly, confluent (50′000 cells/well) and pre-confluent (5′000 cells/well) were seeded into 96-well plates in DMEM supplemented with 10 % FBS, penicillin (100 U/mL), streptomycin (100 μg/mL) and tetracycline (5 μg/mL) and incubated at 37 °C under a humid, 5 % CO2 atmosphere for 24 h and 5 h respectively. Alexidine, ESI-09 and MMV1581545 were added to final concentrations ranging from 120 to 0.49 μM (1:3 serial dilution) to each well and then cells were incubated at 37 °C under a humid, 5 % CO2 atmosphere for 5 days. To measure viability, the medium was removed, 180 μL of PBS was added to the cells and resazurin was added to each well to a final concentration of 10 mg/L. The cells were then allowed to process the resazurin at RT for 1 h. Fluorescence was measured on a HIDEX Sense microplate reader. Measurements were performed in triplicates and IC50 values were calculated in R using the three parameter Weibull type 1 model for three independent experiments ([Ritler et al., 2020]).

cancer cell lines = system: cancer cell lines; parameters: method as in Maeda et al., 2020; conditions: ref Maeda et al., 2020; cited from earlier work
[2] = system: E. multilocularis GL cells; experiment: Germinal layer cell viability assay (CellTiter-Glo); assay type: cell-based, Echinococcus multilocularis
Procedure: The isolation of GL cells was conducted according to ([Kaethner et al., 2023]). Briefly, conditioned DMEM (cDMEM) was prepared prior to isolation. For the preparation of cDMEM, 1 × 10^6 RH cells and 10 × 10^6 RH cells incubated in DMEM supplemented with 10 % FBS, penicillin (100 U/mL), streptomycin (100 μg/mL) and tetracycline (5 μg/mL) for six or four days, respectively, at 37 °C under a humid, 5 % CO2 atmosphere. The supernatant of each was mixed 1:1 and sterile filtrated, resulting in cDMEM. Metacestode vesicles of at least 6 months of age were washed with PBS, incubated in distilled H2O for 2.5 min and subsequently mechanically disrupted. The resulting pellet was resuspended in 7 vol of pre-warmed 0.05 % Trypsin/0.02 % EDTA and incubated at 37 °C for 30 min. GL cells were extracted from the laminated layer by vigorous shaking followed by filtration through a 30 μm mesh (Sefar AG, Heiden, Switzerland) and separated from calcareous corpuscles by short centrifugation at 50×g for 30 s at RT. The isolated cells were centrifuged for 10 min at 600×g and RT and the pellet was resuspended in cDMEM. The cell suspension was diluted 1:100 in PBS to measure the OD600. An OD600 value of 0.1 of this dilution was defined as one arbitrary unit (AU) per μL of the undiluted cell suspension corresponding to 0.97 ± 0.11 μg of total protein for the GL cells as measured via Pierce™ bicinchoninic acid (BCA) Protein Assay Kit according to the manufacturer's protocol (Fisher Scientific AG, Reinach, Switzerland). 1′000 AU per 5 mL of cDMEM were cultured at 37 °C overnight under a humid nitrogen atmosphere. The next day, 2′000 AU of GL cells were combined and further cultured for 3 h at 37 °C under a humid nitrogen atmosphere before they were used for further experiments.
To assess effects of compounds on the cell viability of isolated E. multilocularis GL cells, the protocol was applied as previously described ([Kaethner et al., 2023]). In short, 15 AU of GL cells were distributed into each well of a black 384-well plate. Compounds dissolved in DMSO (alexidine, carbendazim, ESI-09, MMV1581545 and oxfendazole) were added to final concentrations ranging from 80 to 0.31 μM (1:2 serial dilution) and the cells were cultured for 5 days at 37 °C under a humid, microaerobic atmosphere (85 % N2, 10 % CO2, 5 % O2). DMSO with the respective concentration was used as a solvent control. Viability was measured using the CellTiter-Glo® kit. Luminescence was measured using a HIDEX Sense microplate reader. Measurements were done in quadruplicates and represented as relative viability of the DMSO controls. IC50 values were calculated in R applying the five parameter logistic model for three independent experiments ([Ritler et al., 2020]).

[3] = system: E. multilocularis metacestode vesicles; experiment: Transmission electron microscopy of treated metacestode vesicles; assay type: cell-based, Echinococcus multilocularis; conditions: 1 μM, 24 h
Procedure: To investigate induction of ultrastructural changes in E. multilocularis metacestode vesicles treated with ESI-09, transmission electron microscopy (TEM) was performed. Metacestode vesicles were treated with either 1 μM ESI-09 or the solvent control DMSO with subsequent incubation for 24 h at 37 °C under a humid, 5 % CO2 atmosphere. Processing and imaging was done as previously described ([Kaethner et al., 2023]).

[4] = system: E. multilocularis GL cells; experiment: Seahorse mito cell stress test, oxygen consumption rate; assay type: cell-based, Echinococcus multilocularis; conditions: titration in GL cells
Procedure: To measure mitochondrial respiration in E. multilocularis GL cells, Seahorse “mito cell stress test” was performed according to the manual for Seahorse XFp Extracellular Flux Analyzer (Agilent Technologies, Basel, Switzerland) with some adaptations ([Gu et al., 2021]; [Rufener et al., 2018]). Seahorse XFp 8-well plates were hydrated and incubated together with Seahorse XF calibrant solution at 37 °C in a non-CO2 incubator overnight the day before the actual experiment. […] Oligomycin was used at a final concentration of 1.5 μM. […] The experiment was repeated three times independently with two technical replicates.

CC(C)(C)c1cc(C(=O)/C(C#N)=N/Nc2cccc(Cl)c2)no1 [ESI-09]
toxicity against mammalian cell line (in words) ([1]; RH cells counter-screen): moderate toxicity | IC50 ([1]; Rattus norvegicus, 120 h, confluent, read-out: IC50 confluent RH cells): 37.3 ± 0.73 µM | IC50 ([1]; Rattus norvegicus, 120 h, pre-confluent, read-out: IC50 pre-confluent RH cells): 9.02 ± 1.3 µM | IC50 ([1]; pre-confluent, read-out: IC50 pre-confluent RH cells): 9.03 ± 1.3 µM | optimal uncoupling concentration in cancer cell lines (cancer cell lines): 2 µM | effect on GL cell viability (in words) ([2]; 80 to 0.31 μM, 5 days): highly effective | IC50 ([2]; Echinococcus multilocularis, 120 h, 5 days incubation, microaerobic, mean ± SD of three independent experiments): 2.45 ± 0.86 µM | ultrastructural changes in metacestode vesicles (in words) [3]: induced distinct ultrastructural changes | ultrastructural changes in mitochondria (in words) [3]: no ultrastructural changes in mitochondria were seen | optimal (maximal) uncoupling concentration [4]: 2 µM
